Reference: the NIST ThermoML archive (doi:10.1021/je200787v)
“And” between values parts separate entries of the source, which are not always exact repeats. Equal entries are not always repeated.

Key:
[1] = Liquid
[2] = xn = mol fraction of the nth substance listed; conditions: Liquid; for viscosity: Falling or rolling sphere viscometry; for mass density: Vibrating tube method

CCCCCCCCCCCCCCCCCC [octadecane]
[1]
Conditions	mass density
323.1 K	757 kg/m3 [middle of 4 runs]
323.3 K	756 kg/m3 and 757 kg/m3
372.8 K	734 kg/m3 [middle of 6 runs]
422.5 K	703 kg/m3 and 704 kg/m3
422.6 K	700 kg/m3 [middle of 6 runs]

CCCCCCCCCCCCCCCCCC [octadecane] + CC
[2]
Conditions	mass density [kg/m3]	viscosity [mPa·s]
323.1 K, x2 = 0.27	732	1.59
323.1 K, x2 = 0.415	715	1.09
323.1 K, x2 = 0.789	606	0.31
323.1 K, x2 = 0.844	572	0.23
323.3 K, x2 = 0.546	691	0.81
323.3 K, x2 = 0.654	662	0.55
372.8 K, x2 = 0.127	719	0.87
372.8 K, x2 = 0.298	703	0.7
372.8 K, x2 = 0.372	692	0.62
372.8 K, x2 = 0.474	676	0.52
372.8 K, x2 = 0.536	664	0.46
372.8 K, x2 = 0.599	648	0.39
372.8 K, x2 = 0.666	628	0.32
372.8 K, x2 = 0.701	614	0.29
422.5 K, x2 = 0.547	624	0.29
422.5 K, x2 = 0.588	613	0.27
422.6 K, x2 = 0.096	688	0.55
422.6 K, x2 = 0.194	679	0.49
422.6 K, x2 = 0.296	667	0.43
422.6 K, x2 = 0.365	659	0.4
422.6 K, x2 = 0.427	648	0.37
422.6 K, x2 = 0.477	640	0.33
